The target of one assay is VEGFR2 (Homo sapiens (Human), UniProt P35968). Briefly: Inhibitory activity of VEGFR2 kinase (HTRF KinEASE-TK kit). It counts as biochemical. The settings on record: for IC50: ATP 5 μM, 20 minutes, room temperature; for IC50 value as fold of that of Comparative compound 2 / IC50 value as fold of that of Sorafenib (free base): ratio of IC50. The method, then: HTRF®KinEASE™-TK kit (Cat.62TKOPEC, Cisbio);
VEGFR2 (Cat: k2643, Sigma);
2.1 Preparation of VEGFR2 Kinase Reagent
1× kinase buffer: 1 mL 1× kinase buffer contained 200 μL 5× kinase buffer (Invitrogen), 5 μL, 1M MgCl2, 1 μL 1M DTT, 1 μL 1M MnCl2, and 793 μL ddH2O;
5×TK substrate-biotin and ATP working fluid: as the concentrations of TK substrate-biotin and ATP, please refer to Table 1. TK substrate-biotin and ATP were diluted with 1× kinase buffer to 5 folds of the reaction concentrations;
5× kinase working fluid: as the concentration of VEGFR2 kinase, please refer to Table 1. 5× kinase working fluid was prepared with 1× Kinase buffer;
4× Sa-XL665 working fluid: as the concentration of Sa-XL665 (Cisbio) in the reaction, please refer to Table 1. The 4× Sa-XL665 working fluid was prepared with assay buffer (Cisbio);
4×TK Ab-cryptate working fluid: TK Ab-Cryptate (Cisbio) was 100-fold diluted with assay buffer (Cisbio), as working fluid;
Experimental Procedure of HTRF KinEASE TK Kit
After all the reagents were prepared as described above, the reagents except for enzymes were equilibrated to room temperature, then adding samples were performed.
TK substrate-biotin, ATP, VEGFR2 kinase and a compound at a certain concentration were reacted in 1× kinase buffer at room temperature for 20 minutes. […] To all the reaction wells, 5 μl 4× Sa-XL665 working fluid and 5 μl 4×TK Ab-cryptate working fluid were added. After reacting at room temperature for 1 hours, fluorescence signal (excited at 320 nm, emitted at 665 nm, 615 nm) was detected by ENVISION detector (Perkinelmer). Based on the full-active well and the background signal well, the inhibition rate for each well was calculated, and the average value was used for duplicate wells. The half maximal inhibitory concentration (IC50) for each test compound was fitted by professional software Graphpad PRISM 5.0.
2.3 Data Analysis Emission light ratio (ER)=665 nm emission signal/615 nm emission signal Inhibition rate=(ERpositive−ERsample)/(ERpositive−ERnegative)*100%
HTRF KinEASE TK kit was used to determine the IC50 value of a compound for kinase VEGFR2. The final concentration of the compound started from 100 μM, and 4-fold gradient dilution was carried out to provide 10 concentrations. Duplicate wells were used for each concentration. The final concentration of DMSO was controlled to 1% in the reaction system.
(In general: Time-resolved FRET reads energy transfer from a long-lived donor to a nearby acceptor.)

The subject of assay [1] is human colon cancer HCT-116 transplantation. Briefly: Effect on tumor weight of human colon cancer HCT-116 transplantation nude mice (Comparative Experiment Example 2). It counts as in vivo. The settings on record: QD × 17 day. The text has this:
Comparative Experiment Example 2
Under aseptic conditions, the well grown human HCT-116 cell suspension in logarithmic growth phase was used to inoculate nude mouse at axillary cavity of right forelimb subcutaneously via an injector. The tumor growth state was observed regularly until the tumor grew to a volume of 100˜300 mm^3.
48 Tumor-bearing mice with a tumor volume of 100˜300 mm^3 were selected and divided into 6 groups, which were 1 solvent control group, 3 positive control groups, and 2 test sample groups. Both the positive control group and the test sample group were administered intragastrically once a day; the solvent control group was administered with 12.5% ethanol & 12.5% water solution of polyoxyethylene castor oil once a day; intragastrical volume was 10 mL/kg.
(§1) In the period of administration, tumor diameter was measured twice every week, tumor volume was calculated, and animal body weight was recorded. Animal state was observed when administered, and abnormal state was recorded.
Animal was sacrificed with CO2, and tumor mass was peeled off, weighed, and photographed. After photographed, each tumor mass was cut into two parts, wherein one was stored in 4% paraformaldehyde, and the other was packaged into a freezing tube, and frozen in liquid nitrogen. Animal was subjected to gross anatomy, and organs were observed by eyes to find if they were normal or not.
(§2) Observation Indexes: Tumor weight inhibiting rate (IR)=(WC−WT)/WC
wherein WC and WT represented the average tumor weight of solvent control group and the average tumor weight of drug administration group, respectively.
Experimental data was subjected to calculation and relevant statistic processing by Microsoft Office Excel 2003 software. Unless otherwise specified, data was represented as Mean±Standard Error (Mean±S.E.), and t-test is used in the comparison between two groups.

The test system of assay [2] is human renal cancer 786-O transplantation. Briefly: Effect on tumor weight of human renal cancer 786-O transplantation nude mice (Comparative Experimental Example 1). The assay is classed as in vivo. Particulars: QD × 14 days.
Excerpt: Comparative Experimental Example 1
The well grown 786-O solid tumor was cut into a mass of an average volume of about 1 mm^3 under aseptic conditions, and was used to inoculate nude mouse at axillary cavity of right forelimb subcutaneously via a trocar. The tumor growth state was observed regularly until the tumor grew into a volume of 250˜550 mm^3.
Animals with tumors of a too large or too small volume and an irregular shape were discarded. Tumor-bearing mice with a tumor volume of 250˜550 mm^3 in a good state were selected, 48 mice in total, and were divided into 6 groups, which were 1 solvent control group, 3 positive control groups, and 2 test sample groups. Both the positive control group and the test sample group were administered intragastrically once a day; the solvent control group was administered with 12.5% ethanol & 12.5% water solution of polyoxyethylene castor oil once a day; intragastrical volume was 10 mL/kg.
as §1
Animal was sacrificed with CO2, and tumor was peeled off, weighed, and photographed. Animal was subjected to gross anatomy, and organs were observed by eyes to find if they were normal or not.
as §2
Wherein WC and WT represented the average tumor weight of solvent control group and the average tumor weight of drug administration group, respectively.
Experimental data was subjected to calculation and relevant statistic processing by Microsoft Office Excel 2003 software. Unless otherwise specified, data was represented as Mean±Standard Error (Mean±S.E), and t-test is used in the comparison between two groups.

VEGFR2, sequence (P35968 20-1356): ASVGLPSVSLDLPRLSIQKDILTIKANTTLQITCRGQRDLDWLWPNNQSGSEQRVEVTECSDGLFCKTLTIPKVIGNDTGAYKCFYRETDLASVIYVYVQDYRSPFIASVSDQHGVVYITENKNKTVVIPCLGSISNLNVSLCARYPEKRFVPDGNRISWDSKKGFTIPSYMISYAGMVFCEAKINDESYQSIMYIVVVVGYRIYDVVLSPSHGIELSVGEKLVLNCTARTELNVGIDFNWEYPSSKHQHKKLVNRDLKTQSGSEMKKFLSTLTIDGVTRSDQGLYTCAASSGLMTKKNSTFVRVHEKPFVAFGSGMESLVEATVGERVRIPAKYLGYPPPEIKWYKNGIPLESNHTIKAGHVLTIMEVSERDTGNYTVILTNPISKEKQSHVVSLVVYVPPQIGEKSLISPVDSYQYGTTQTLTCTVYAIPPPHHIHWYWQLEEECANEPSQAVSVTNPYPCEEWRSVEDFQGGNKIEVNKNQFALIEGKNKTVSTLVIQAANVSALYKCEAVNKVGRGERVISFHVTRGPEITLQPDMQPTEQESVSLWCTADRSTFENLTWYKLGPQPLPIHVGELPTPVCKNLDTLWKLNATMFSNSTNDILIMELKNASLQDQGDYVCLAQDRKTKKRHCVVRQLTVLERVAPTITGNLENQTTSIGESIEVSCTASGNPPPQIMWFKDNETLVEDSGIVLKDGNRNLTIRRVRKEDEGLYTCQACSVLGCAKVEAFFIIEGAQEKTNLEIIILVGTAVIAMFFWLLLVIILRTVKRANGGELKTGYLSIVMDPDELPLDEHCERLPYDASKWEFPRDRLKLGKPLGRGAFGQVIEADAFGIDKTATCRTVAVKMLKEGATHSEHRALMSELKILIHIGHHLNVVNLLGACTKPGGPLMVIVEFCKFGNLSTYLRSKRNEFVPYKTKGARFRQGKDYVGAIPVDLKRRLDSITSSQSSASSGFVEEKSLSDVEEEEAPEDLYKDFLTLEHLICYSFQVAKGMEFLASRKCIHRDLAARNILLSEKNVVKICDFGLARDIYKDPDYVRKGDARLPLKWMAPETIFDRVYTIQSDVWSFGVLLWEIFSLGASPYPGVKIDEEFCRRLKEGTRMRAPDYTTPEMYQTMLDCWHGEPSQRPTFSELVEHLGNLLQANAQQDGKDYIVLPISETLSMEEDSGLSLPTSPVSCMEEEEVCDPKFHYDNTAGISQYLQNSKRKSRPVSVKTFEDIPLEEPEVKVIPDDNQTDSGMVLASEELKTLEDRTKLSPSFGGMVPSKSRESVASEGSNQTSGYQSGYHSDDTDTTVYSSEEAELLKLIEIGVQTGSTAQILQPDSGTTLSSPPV

For orientation: IC50 means the concentration needed to halve the response being measured. Read a low IC50 as greater potency in that assay. The molecule `Cn1cc(-c2cc(Oc3ccc(NC(=O)Nc4ccc(Cl)c(C(F)(F)F)c4)cc3)ccn2)cn1` [Comparative example 2, 1-(4-chloro-3-(trifluoromethyl)phenyl)-3-(4-(2-(1-methyl-pyrazol-4-yl)-pyridin-4-yl-oxy)phenyl)urea] gave an IC50 on VEGFR2 of 188 nM. The “Tumor weight Mean ± S.E” value is given as 0.3283 ± 0.0404 g in assay [1] (20 mg/kg Ig, sorafenib as p-toluenesulfonate, FD-1210005 free form); 0.2829 ± 0.0309 g in assay [1] (60 mg/kg Ig, sorafenib as p-toluenesulfonate, FD-1210005 free form); 0.1892 ± 0.0253 g in assay [2] (20 mg/kg po, sorafenib as p-toluenesulfonate, FD-1210005 free form); 0.1897 ± 0.0192 g in assay [2] (60 mg/kg po, sorafenib as p-toluenesulfonate, FD-1210005 free form). Also, the Tumor-inhibiting rate in assay [1] (20 mg/kg Ig, sorafenib as p-toluenesulfonate, FD-1210005 free form, listed as Comparative compound 2) stood at 67%; in assay [1] (20 mg/kg Ig, sorafenib as p-toluenesulfonate, FD-1210005 free form, listed as FD-1210005), 66.91%; in assay [1] (60 mg/kg Ig, sorafenib as p-toluenesulfonate, FD-1210005 free form, listed as Comparative compound 2), 71%; in assay [1] (60 mg/kg Ig, sorafenib as p-toluenesulfonate, FD-1210005 free form, listed as FD-1210005), 71.49%; in assay [2] (20 mg/kg po, sorafenib as p-toluenesulfonate, FD-1210005 free form, listed as Comparative compound 2), 80%; in assay [2] (20 mg/kg po, sorafenib as p-toluenesulfonate, FD-1210005 free form, listed as FD-1210005), 79.78%. The Tumor-inhibiting rate came out at 80% in assay [2] (60 mg/kg po, sorafenib as p-toluenesulfonate, FD-1210005 free form, listed as Comparative compound 2) and 79.73% in assay [2] (60 mg/kg po, sorafenib as p-toluenesulfonate, FD-1210005 free form, listed as FD-1210005).
Regarding `Cn1cc(-c2cc(Oc3ccc(NC(=O)Nc4ccc(Cl)c(C(F)(F)F)c4)cc3)c(F)cn2)cn1` [Comparative example 3, 1-(4-chloro-3-(trifluoromethyl)phenyl)-3-(4-(2-(1-methyl-pyrazol-4-yl)-5-fluoro-pyridin-4-yl-oxy)phenyl)urea, reference compound], at VEGFR2, the IC50 stood at 437 nM.
On to `Cn1cc(-c2cc(Oc3ccc(NC(=O)Nc4ccc(Cl)c(C(F)(F)F)c4)cc3)c(Cl)cn2)cn1` [Comparative example 4, 1-(4-chloro-3-(trifluoromethyl)phenyl)-3-(4-(2-(1-methyl-pyrazol-4-yl)-5-chloro-pyridin-4-yl-oxy)phenyl)urea, reference compound], for which inhibition against VEGFR2 was half-maximal at 20500 nM (IC50). Against the preceding molecule, the IC50 is about 47-fold higher.
`COc1cc(Oc2ccc(NC(=O)Nc3ccc(Cl)c(C(F)(F)F)c3)cc2)cc(-c2cnn(C)c2)n1` [Comparative example 5, 1-(4-chloro-3-(trifluoromethyl)phenyl)-3-(4-(2-(1-methyl-pyrazol-4-yl)-6-methoxy-pyridin-4-yl-oxy)phenyl)urea, reference compound] showed a concentration for half-maximal inhibition (IC50) against VEGFR2 of 2390 nM.
For the molecule `Cn1cc(-c2nccc(Oc3ccc(NC(=O)Nc4ccc(Cl)c(C(F)(F)F)c4)c(F)c3)c2Cl)cn1` [Example 3, 1-(4-chloro-3-(trifluoromethyl)phenyl)-3-(4-(3-chloro-2-(1-methyl-pyrazol-4-yl)-pyridin-4-yl-oxy)-2-fluorophenyl)urea], inhibition against VEGFR2 was half-maximal at 222 nM (IC50). Also, on VEGFR2 (VEGFR2 kinase), the “inhibitory activity as fold of that of Sorafenib” value turned out to be 1.5 fold, the “IC50 value as fold of that of Comparative compound 2” value is reported as “comparable” and the “IC50 value as fold of that of Sorafenib (free base)” value was 2.5 fold.
`Cn1cc(-c2nccc(Oc3ccc(NC(=O)Nc4ccc(Cl)c(C(F)(F)F)c4)cc3)c2C#N)cn1` [Example 4, 1-(4-chloro-3-(trifluoromethyl)phenyl)-3-(4-(3-cyano-2-(1-methyl-pyrazol-4-yl)-pyridin-4-yl-oxy)phenyl)urea] showed an IC50 against VEGFR2 of 68.5 nM. In addition, at VEGFR2 (VEGFR2 kinase), the “inhibitory activity as fold of that of Comparative compound 2” value amounted to 2.7 fold, the “inhibitory activity as fold of that of Sorafenib” value stood at 1.3 fold, the “IC50 value as fold of that of Comparative compound 2” value was 0.36 fold and the “IC50 value as fold of that of Sorafenib (free base)” value is 0.75 fold.
The molecule `Cc1c(Oc2ccc(NC(=O)Nc3ccc(Cl)c(C(F)(F)F)c3)cc2)ccnc1-c1cnn(C)c1` [Example 5, 1-(4-chloro-3-(trifluoromethyl)phenyl)-3-(4-(3-methyl-2-(1-methyl-pyrazol-4-yl)-pyridin-4-yl-oxy)phenyl)urea] came in with an IC50 on VEGFR2 of 317 nM.
For the molecule `Cn1cc(-c2nccc(Oc3ccc(NC(=O)Nc4ccc(Cl)c(C(F)(F)F)c4)cc3)c2N)cn1` [Example 6, 1-(4-chloro-3-(trifluoromethyl)phenyl)-3-(4-(3-amino-2-(1-methyl-pyrazol-4-yl)-pyridin-4-yl-oxy)phenyl)urea], the midpoint of inhibition against VEGFR2, the IC50, lay at 215 nM.
Molecule `CNc1c(Oc2ccc(NC(=O)Nc3ccc(Cl)c(C(F)(F)F)c3)cc2)ccnc1-c1cnn(C)c1` [Example 7, 1-(4-chloro-3-(trifluoromethyl)phenyl)-3-(4-(3-methylamino-2-(1-methyl-pyrazol-4-yl)-pyridin-4-yl-oxy)phenyl)urea] came in with an IC50 against VEGFR2 of 656 nM. Compared with the last molecule, the IC50 is about 3.1-fold higher.
Consider `COc1c(Oc2ccc(NC(=O)Nc3ccc(Cl)c(C(F)(F)F)c3)cc2)ccnc1-c1cnn(C)c1` [Example 8, 1-(4-chloro-3-(trifluoromethyl)phenyl)-3-(4-(3-methoxy-2-(1-methyl-pyrazol-4-yl)-pyridin-4-yl-oxy)phenyl)urea], for which the midpoint of inhibition at VEGFR2, the IC50, lay at 417 nM.
For `CCN(CC)CCNC(=O)c1c(C)[nH]c(/C=C2\C(=O)Nc3ccc(F)cc32)c1C` [Sunitinib], in assay [1] (40 mg/kg Ig), the “Tumor weight Mean ± S.E” value was determined as 0.3890 ± 0.0453 g and the Tumor-inhibiting rate was determined as 60.80%. Further, in assay [2] (40 mg/kg po), the “Tumor weight Mean ± S.E” value is 0.1825 ± 0.0213 g and the Tumor-inhibiting rate turned out to be 80.49%.

These data come from US9902709B2, “Polysubstituted pyridine compound, preparation method, use and pharmaceutical composition” (PEKING UNIVERSITY FOUNDER GROUP CO., LTD., priority 2014, dated 2018).
